Experiments:
Spleen [1] = experiment: Biodistribution in S180 tumor-bearing mouse spleen at 8 to 10 uCi, iv after 60 mins by gamma counting; format: ADME, organism-based; conditions: in vivo, 1 h
Heart [2] = experiment: Biodistribution in S180 tumor-bearing mouse heart at 8 to 10 uCi, iv after 30 mins by gamma counting; format: ADME, organism-based; conditions: in vivo, 0.5 h
Muscle tissue [3] = experiment: Biodistribution in S180 tumor-bearing mouse muscle at 8 to 10 uCi, iv after 120 mins by gamma counting; format: ADME, organism-based; conditions: in vivo, 2 h
Brain [4] = experiment: Biodistribution in S180 tumor-bearing mouse brain at 8 to 10 uCi, iv after 120 mins by gamma counting; format: ADME, organism-based; conditions: in vivo, 2 h
Nucleic Acid [5] = experiment: Ratio of drug level in tumor to brain in S180 tumor-bearing mouse at 8 to 10 uCi, iv at 30 mins by gamma counting; format: ADME, organism-based; conditions: in vivo, 0.5 h
Blood [6] = experiment: Biodistribution in S180 tumor-bearing mouse blood at 8 to 10 uCi, iv after 120 mins by gamma counting; format: ADME, organism-based; conditions: in vivo, 2 h
Lung [7] = experiment: Biodistribution in S180 tumor-bearing mouse lung at 8 to 10 uCi, iv after 120 mins by gamma counting; format: ADME, organism-based; conditions: in vivo, 2 h
Nucleic Acid [8] = experiment: Ratio of drug level in tumor to blood in S180 tumor-bearing mouse at 8 to 10 uCi, iv at 60 mins by gamma counting; format: ADME, organism-based; conditions: tumour, 1 h
Blood [9] = experiment: Biodistribution in S180 tumor-bearing mouse blood at 8 to 10 uCi, iv after 30 mins by gamma counting; format: ADME, organism-based; conditions: in vivo, 0.5 h
Blood [10] = experiment: Biodistribution in S180 tumor-bearing mouse blood at 8 to 10 uCi, iv after 60 mins by gamma counting; format: ADME, organism-based; conditions: in vivo, 1 h
Nucleic Acid [11] = experiment: Ratio of drug level in tumor to blood in S180 tumor-bearing mouse at 8 to 10 uCi, iv at 120 mins by gamma counting; format: ADME, organism-based; conditions: tumour, 2 h
Spleen [12] = experiment: Biodistribution in S180 tumor-bearing mouse spleen at 8 to 10 uCi, iv after 30 mins by gamma counting; format: ADME, organism-based; conditions: in vivo, 0.5 h
[13] = n-octanol-PBS partition coefficient, logP of the compound; format: physicochemical
Brain [14] = experiment: Biodistribution in S180 tumor-bearing mouse brain at 8 to 10 uCi, iv after 30 mins by gamma counting; format: ADME, organism-based; conditions: in vivo, 0.5 h
Heart [15] = experiment: Biodistribution in S180 tumor-bearing mouse heart at 8 to 10 uCi, iv after 5 mins by gamma counting; format: ADME, organism-based; conditions: in vivo
Stomach [16] = experiment: Biodistribution in S180 tumor-bearing mouse stomach at 8 to 10 uCi, iv after 60 mins by gamma counting; format: ADME, organism-based; conditions: in vivo, 1 h
Mus musculus [17] = experiment: Biodistribution in S180 cells xenografted in mouse tumor at 8 to 10 uCi, iv after 5 mins by gamma counting; format: ADME, organism-based, Neoplasm, CCRF S-180; conditions: in vivo
[18] = Chemical stability in PBS after 2 hrs by radio-HPLC analysis at room temperature; format: physicochemical; conditions: buffer
Nucleic Acid [19] = experiment: Ratio of drug level in tumor to muscle in S180 tumor-bearing mouse at 8 to 10 uCi, iv at 30 mins by gamma counting; format: ADME, organism-based; conditions: in vivo, 0.5 h
Stomach [20] = experiment: Biodistribution in S180 tumor-bearing mouse stomach at 8 to 10 uCi, iv after 5 mins by gamma counting; format: ADME, organism-based; conditions: in vivo
Nucleic Acid [21] = experiment: Ratio of drug level in tumor to blood in S180 tumor-bearing mouse at 8 to 10 uCi, iv at 5 mins by gamma counting; format: ADME, organism-based; conditions: tumour
Stomach [22] = experiment: Biodistribution in S180 tumor-bearing mouse stomach at 8 to 10 uCi, iv after 120 mins by gamma counting; format: ADME, organism-based; conditions: in vivo, 2 h
Blood [23] = experiment: Biodistribution in S180 tumor-bearing mouse blood at 8 to 10 uCi, iv after 5 mins by gamma counting; format: ADME, organism-based; conditions: in vivo
Muscle tissue [24] = experiment: Biodistribution in S180 tumor-bearing mouse muscle at 8 to 10 uCi, iv after 5 mins by gamma counting; format: ADME, organism-based; conditions: in vivo
Mus musculus [25] = experiment: Biodistribution in S180 cells xenografted in mouse tumor at 8 to 10 uCi, iv after 30 mins by gamma counting; format: ADME, organism-based, Neoplasm, CCRF S-180; conditions: in vivo, 0.5 h
Liver [26] = experiment: Biodistribution in S180 tumor-bearing mouse liver at 8 to 10 uCi, iv after 60 mins by gamma counting; format: ADME, organism-based; conditions: in vivo, 1 h
Spleen [27] = experiment: Biodistribution in S180 tumor-bearing mouse spleen at 8 to 10 uCi, iv after 120 mins by gamma counting; format: ADME, organism-based; conditions: in vivo, 2 h
Brain [28] = experiment: Biodistribution in S180 tumor-bearing mouse brain at 8 to 10 uCi, iv after 60 mins by gamma counting; format: ADME, organism-based; conditions: in vivo, 1 h
Liver [29] = experiment: Biodistribution in S180 tumor-bearing mouse liver at 8 to 10 uCi, iv after 5 mins by gamma counting; format: ADME, organism-based; conditions: in vivo
Stomach [30] = experiment: Biodistribution in S180 tumor-bearing mouse stomach at 8 to 10 uCi, iv after 30 mins by gamma counting; format: ADME, organism-based; conditions: in vivo, 0.5 h
Kidney [31] = experiment: Biodistribution in S180 tumor-bearing mouse kidney at 8 to 10 uCi, iv after 120 mins by gamma counting; format: ADME, organism-based; conditions: in vivo, 2 h
Nucleic Acid [32] = experiment: Ratio of drug level in tumor to brain in S180 tumor-bearing mouse at 8 to 10 uCi, iv at 5 mins by gamma counting; format: ADME, organism-based; conditions: in vivo
[33] = Chemical stability in PBS after 2 hrs by radio-HPLC analysis at 60 degC; format: physicochemical; conditions: buffer
Nucleic Acid [34] = experiment: Ratio of drug level in tumor to muscle in S180 tumor-bearing mouse at 8 to 10 uCi, iv at 60 mins by gamma counting; format: ADME, organism-based; conditions: in vivo, 1 h
Kidney [35] = experiment: Biodistribution in S180 tumor-bearing mouse kidneys at 8 to 10 uCi, iv after 5 mins by gamma counting; format: ADME, organism-based; conditions: in vivo
Kidney [36] = experiment: Biodistribution in S180 tumor-bearing mouse kidney at 8 to 10 uCi, iv after 60 mins by gamma counting; format: ADME, organism-based; conditions: in vivo, 1 h
Kidney [37] = experiment: Biodistribution in S180 tumor-bearing mouse kidney at 8 to 10 uCi, iv after 30 mins by gamma counting; format: ADME, organism-based; conditions: in vivo, 0.5 h
Brain [38] = experiment: Biodistribution in S180 tumor-bearing mouse brain at 8 to 10 uCi, iv after 5 mins by gamma counting; format: ADME, organism-based; conditions: in vivo
Heart [39] = experiment: Biodistribution in S180 tumor-bearing mouse heart at 8 to 10 uCi, iv after 60 mins by gamma counting; format: ADME, organism-based; conditions: in vivo, 1 h
Plasma = experiment: Metabolic stability in mouse plasma after 2 hrs by radio-HPLC analysis; format: ADME, cell-free
Mus musculus [40] = experiment: Biodistribution in S180 cells xenografted in mouse tumor at 8 to 10 uCi, iv after 120 mins by gamma counting; format: ADME, organism-based, Neoplasm, CCRF S-180; conditions: in vivo, 2 h
Nucleic Acid [41] = experiment: Ratio of drug level in tumor to muscle in S180 tumor-bearing mouse at 8 to 10 uCi, iv at 5 mins by gamma counting; format: ADME, organism-based; conditions: in vivo
Lung [42] = experiment: Biodistribution in S180 tumor-bearing mouse lung at 8 to 10 uCi, iv after 60 mins by gamma counting; format: ADME, organism-based; conditions: in vivo, 1 h
Heart [43] = experiment: Biodistribution in S180 tumor-bearing mouse heart at 8 to 10 uCi, iv after 120 mins by gamma counting; format: ADME, organism-based; conditions: in vivo, 2 h
Liver [44] = experiment: Biodistribution in S180 tumor-bearing mouse liver at 8 to 10 uCi, iv after 120 mins by gamma counting; format: ADME, organism-based; conditions: in vivo, 2 h
Lung [45] = experiment: Biodistribution in S180 tumor-bearing mouse lung at 8 to 10 uCi, iv after 30 mins by gamma counting; format: ADME, organism-based; conditions: in vivo, 0.5 h
Spleen [46] = experiment: Biodistribution in S180 tumor-bearing mouse spleen at 8 to 10 uCi, iv after 5 mins by gamma counting; format: ADME, organism-based; conditions: in vivo
Mus musculus [47] = experiment: Biodistribution in S180 cells xenografted in mouse tumor at 8 to 10 uCi, iv after 60 mins by gamma counting; format: ADME, organism-based, Neoplasm, CCRF S-180; conditions: in vivo, 1 h
Nucleic Acid [48] = experiment: Ratio of drug level in tumor to muscle in S180 tumor-bearing mouse at 8 to 10 uCi, iv at 120 mins by gamma counting; format: ADME, organism-based; conditions: in vivo, 2 h
Nucleic Acid [49] = experiment: Ratio of drug level in tumor to brain in S180 tumor-bearing mouse at 8 to 10 uCi, iv at 60 mins by gamma counting; format: ADME, organism-based; conditions: in vivo, 1 h
Lung [50] = experiment: Biodistribution in S180 tumor-bearing mouse lungs at 8 to 10 uCi, iv after 5 mins by gamma counting; format: ADME, organism-based; conditions: in vivo
Muscle tissue [51] = experiment: Biodistribution in S180 tumor-bearing mouse muscle at 8 to 10 uCi, iv after 60 mins by gamma counting; format: ADME, organism-based; conditions: in vivo, 1 h
Nucleic Acid [52] = experiment: Ratio of drug level in tumor to brain in S180 tumor-bearing mouse at 8 to 10 uCi, iv at 120 mins by gamma counting; format: ADME, organism-based; conditions: in vivo, 2 h
Liver [53] = experiment: Biodistribution in S180 tumor-bearing mouse liver at 8 to 10 uCi, iv after 30 mins by gamma counting; format: ADME, organism-based; conditions: in vivo, 0.5 h
Nucleic Acid [54] = experiment: Ratio of drug level in tumor to blood in S180 tumor-bearing mouse at 8 to 10 uCi, iv at 30 mins by gamma counting; format: ADME, organism-based; conditions: tumour, 0.5 h
Muscle tissue [55] = experiment: Biodistribution in S180 tumor-bearing mouse muscle at 8 to 10 uCi, iv after 30 mins by gamma counting; format: ADME, organism-based; conditions: in vivo, 0.5 h

## COc1cc2ncnc(Nc3ccc(F)c(Cl)c3)c2cc1OCC[18F]
Spleen [1]
  Drug uptake: 3.23 % ID/g
Heart [2]
  Drug uptake: 5.02 % ID/g
Muscle tissue [3]
  Drug uptake: 1.74 % ID/g
Brain [4]
  Drug uptake: 1.98 % ID/g
Nucleic Acid [5]
  Ratio: 1.84
Blood [6]
  Drug uptake: 3.61 % ID/g
Lung [7]
  Drug uptake: 2.57 % ID/g
Nucleic Acid [8]
  Ratio: 1.09
Blood [9]
  Drug uptake: 5.85 % ID/g
Blood [10]
  Drug uptake: 5.07 % ID/g
Nucleic Acid [11]
  Ratio: 1.3
Spleen [12]
  Drug uptake: 3.67 % ID/g
[13]
  logP: 0.39
Brain [14]
  Drug uptake: 3.15 % ID/g
Heart [15]
  Drug uptake: 4.4 % ID/g
Stomach [16]
  Drug uptake: 4.44 % ID/g
Mus musculus [17]
  Drug uptake: 1.87 % ID/g
[18]
  Stability: Stable
Nucleic Acid [19]
  Ratio: 1.39
Stomach [20]
  Drug uptake: 5.35 % ID/g
Nucleic Acid [21]
  Ratio: 0.27
Stomach [22]
  Drug uptake: 3.64 % ID/g
Blood [23]
  Drug uptake: 7 % ID/g
Muscle tissue [24]
  Drug uptake: 5.12 % ID/g
Mus musculus [25]
  Drug uptake: 5.8 % ID/g
Liver [26]
  Drug uptake: 4.22 % ID/g
Spleen [27]
  Drug uptake: 2.39 % ID/g
Brain [28]
  Drug uptake: 2.94 % ID/g
Liver [29]
  Drug uptake: 11.34 % ID/g
Stomach [30]
  Drug uptake: 11.87 % ID/g
Kidney [31]
  Drug uptake: 2.23 % ID/g
Nucleic Acid [32]
  Ratio: 0.95
[33]
  Stability: Stable
Nucleic Acid [34]
  Ratio: 1.64
Kidney [35]
  Drug uptake: 14.25 % ID/g
Kidney [36]
  Drug uptake: 3.99 % ID/g
Kidney [37]
  Drug uptake: 5.2 % ID/g
Brain [38]
  Drug uptake: 1.97 % ID/g
Heart [39]
  Drug uptake: 4.26 % ID/g
Plasma
  Stability: Stable
Mus musculus [40]
  Drug uptake: 4.71 % ID/g
Nucleic Acid [41]
  Ratio: 0.37
Lung [42]
  Drug uptake: 3.75 % ID/g
Heart [43]
  Drug uptake: 2.52 % ID/g
Liver [44]
  Drug uptake: 2.58 % ID/g
Lung [45]
  Drug uptake: 4.57 % ID/g
Spleen [46]
  Drug uptake: 4.5 % ID/g
Mus musculus [47]
  Drug uptake: 5.51 % ID/g
Nucleic Acid [48]
  Ratio: 2.71
Nucleic Acid [49]
  Ratio: 1.87
Lung [50]
  Drug uptake: 4.6 % ID/g
Muscle tissue [51]
  Drug uptake: 3.35 % ID/g
Nucleic Acid [52]
  Ratio: 2.38
Liver [53]
  Drug uptake: 5.38 % ID/g
Nucleic Acid [54]
  Ratio: 0.99
Muscle tissue [55]
  Drug uptake: 4.18 % ID/g
